Values quoted from earlier work, collected in publication PMC11748363, “Antimicrobial and Antiproliferative Properties of 2‐Phenyl‐N‐(Pyridin‐2‐yl)acetamides” (Chemical Biology & Drug Design, 2025).
In brackets after ≈: the same amount, converted by molar mass.

System: Mycobacterium tuberculosis H37Ra
Set-up: method as in Nawrot et al. 2021
Settings: previously published N‐pyridinyl benzamides; ref Nawrot et al. 2021; cited from earlier work

## O=C(Nc1ccc(Cl)cn1)c1ccccc1Cl [C00003 R1=5-Cl,R2=2-Cl]
  MIC Mtb H37Ra (μg/mL), previously published compounds: > 500 µg/mL

## COc1ccccc1C(=O)Nc1ccc(Cl)cn1 [C00003 R1=5-Cl,R2=2-OMe]
  MIC Mtb H37Ra (μg/mL), previously published compounds: 31.25 µg/mL (≈ 119 µM)

## O=C(Nc1ccc(Cl)cn1)c1cccc(C(F)(F)F)c1 [C00003 R1=5-Cl,R2=3-CF3]
  MIC Mtb H37Ra (μg/mL), previously published compounds: 7.81 µg/mL (≈ 26 µM)

## O=C(Nc1ccc(Cl)cn1)c1cccc(Cl)c1 [C00003 R1=5-Cl,R2=3-Cl]
  MIC Mtb H37Ra (μg/mL), previously published compounds: 31.25 µg/mL (≈ 117 µM)

## COc1cccc(C(=O)Nc2ccc(Cl)cn2)c1 [C00003 R1=5-Cl,R2=3-OMe]
  MIC Mtb H37Ra (μg/mL), previously published compounds: 62.5 µg/mL (≈ 238 µM)

## O=C(Nc1ccc(Cl)cn1)c1ccc(Cl)cc1 [C00003 R1=5-Cl,R2=4-Cl]
  MIC Mtb H37Ra (μg/mL), previously published compounds: > 500 µg/mL

## COc1ccc(C(=O)Nc2ccc(Cl)cn2)cc1 [C00003 R1=5-Cl,R2=4-OMe]
  MIC Mtb H37Ra (μg/mL), previously published compounds: 62.5 µg/mL (≈ 238 µM)

## O=C(Nc1ccc(Cl)cn1)c1ccccc1 [C00003 R1=5-Cl,R2=H]
  MIC Mtb H37Ra (μg/mL), previously published compounds: > 500 µg/mL

## O=C(Nc1cccc(Cl)n1)c1ccccc1Cl [C00003 R1=6-Cl,R2=2-Cl]
  MIC Mtb H37Ra (μg/mL), previously published compounds: 62.5 µg/mL (≈ 234 µM)

## COc1ccccc1C(=O)Nc1cccc(Cl)n1 [C00003 R1=6-Cl,R2=2-OMe]
  MIC Mtb H37Ra (μg/mL), previously published compounds: > 500 µg/mL

## O=C(Nc1cccc(Cl)n1)c1cccc(C(F)(F)F)c1 [C00003 R1=6-Cl,R2=3-CF3]
  MIC Mtb H37Ra (μg/mL), previously published compounds: 7.81 µg/mL (≈ 26 µM)

## O=C(Nc1cccc(Cl)n1)c1cccc(Cl)c1 [C00003 R1=6-Cl,R2=3-Cl]
  MIC Mtb H37Ra (μg/mL), previously published compounds: 15.625 µg/mL (≈ 58.5 µM)
